Drawing on ChEMBL document CHEMBL1201862, “PubChem BioAssay data set” (2004), this text covers AC50, EC50 and IC50 for 38 compounds.

Activity calls are given as the source filed them. Bounds are passed on as bounds.

One may read the AC50 as the concentration at which the activity in the assay is half-maximal. As usually defined, the EC50 is the concentration giving half of the maximal effect. For orientation: IC50 means the point on the concentration scale where inhibition reaches its midpoint.

The target in one data set is Cytochrome P450 2C19 (Homo sapiens, UniProt P33261). In words: Cytochrome panel assay with activity outcomes. Panel member name: p450-cyp2c19 Compounds with AC50 equal or less than 10 uM are considered active. The format is functional.
The target in another data set is Cytochrome P450 2D6 (Homo sapiens, UniProt P10635).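 Further: CYP2D6 member of a cytochrome P450 panel assay.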
A further data set deals with Cytochrome P450 3A4 (Homo sapiens, UniProt P08684).
Data set [1] can be described thus: NIH-3T3 fibroblast cytotoxicity, dose response, cytotoxicity control, cell-based, fluorescence, Alamar Blue, secondary assay (AID 2327).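 Further: NIH-3T3 mouse fibroblasts cultured with fluconazole at 8 µg/mL.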 The format is functional. Background: The colour change of resazurin is a common sign of viable cells or microbes.
Data set [2] can be described thus: fluconazole-exposed Candida albicans growth modulators – fluorescence, retest, confirmation (AID 2467). The format is functional, cell-based.
In another data set the target is Large T antigen (Simian virus 40, UniProt P03070). The format is functional, Betapolyomavirus macacae.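 Further: Confirmatory-stage PubChem screen for compounds that inhibit SV40 T antigen.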
A short description of data set [3]: loss of viability in HepG2 cells – cell-based, CellTiter-Glo, cherry-picked, cytotoxicity control for Shn3 inhibitor project, dose response (AID 624134). The format is functional. (Cellular ATP, detected with luciferase, serves as a proxy for viable cell number.)
Data set [4] in a line: reduction of Shn3 3'UTR-driven luciferase in osteoblasts – cell-based, Clone20 osteoblasts, firefly luciferase, cherry-picked, dose response (AID 624132).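 Further: firefly luciferase luminescence from reporter carrying the Shn3 3'UTR in osteoblasts.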 Type of data set: functional.
The nature of data set [5]: non-specific 3'UTR reporter inhibition in Clone20-Shn3RL – cell-based, Renilla luciferase, cherry-picked, counter-screen for Shn3 inhibitor project, dose response (AID 624133). The format is functional. In general terms: A counterscreen serves to expose hits that act by an unwanted route or on another target.
The nature of data set [6]: Luminescence Cell-Based Dose Response HTS to Identify Activators of Luciferase Translation or Activity in H4 […] Cells. [Related pubchem assays: 1829 (Project Summary), 1814 (Primary HTS)]. The format is functional.
Another data set deals with H4. In words: Luminescence Cell-Based Dose Response HTS to Identify Activators of 5'UTR Stem-Loop Driven Prion Protein mRNA Translation in H4 Neuroglioblastoma Cells. [Related pubchem assays: 1829 (Project Summary), 1814 (Primary HTS)]. Type of data set: functional. Conditions: Homo sapiens.
The nature of data set [7]: Luminescence Cell-Based Dose Confirmation HTS to Identify Activators of 5'UTR Stem-Loop Driven Alpha-Synuclein mRNA Translation in H4 Neuroglioblastoma Cells. [Related pubchem assays: 1829 (Project Summary), 1814 (Primary HTS)]. Type of data set: functional.
The test system of another data set is INS1. In words: INS-1E survival protection against cytokine death – cell-based, luminescence, retest, dose response (AID 449756).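 Further: cell death triggered by IL-1 beta plus TNF-alpha plus IFN-gamma mixture; protective hits raise ATP signal compared with cytokine alone wells.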 Type of data set: functional. The settings on record: Rattus norvegicus.
For the next data set, the system named is Streptococcus. In words: GAS UMAA2166 growth inhibition – luminescence, BacTiterGlo, counter-screen for streptokinase expression inhibitor project, dose response (AID 1915).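 Further: potency for reduction of bacterial viability or growth.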 Type of data set: functional, organism-based.
Another data set has as its target T1, Streptokinase A (Streptococcus pyogenes serotype M1, UniProt P10520).
T1 sequence (P10520 whole entry): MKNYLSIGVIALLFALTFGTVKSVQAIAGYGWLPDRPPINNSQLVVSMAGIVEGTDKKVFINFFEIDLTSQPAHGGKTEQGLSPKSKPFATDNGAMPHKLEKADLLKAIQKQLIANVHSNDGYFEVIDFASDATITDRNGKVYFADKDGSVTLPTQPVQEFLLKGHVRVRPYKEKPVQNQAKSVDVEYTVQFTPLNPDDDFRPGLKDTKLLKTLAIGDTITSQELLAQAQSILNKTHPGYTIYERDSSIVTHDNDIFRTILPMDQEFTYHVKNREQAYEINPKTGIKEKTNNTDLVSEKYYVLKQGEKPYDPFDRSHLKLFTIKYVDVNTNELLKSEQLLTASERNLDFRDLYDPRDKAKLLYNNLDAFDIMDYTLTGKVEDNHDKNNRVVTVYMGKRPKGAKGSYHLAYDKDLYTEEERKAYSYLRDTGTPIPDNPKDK
The data set can be described thus: viability-normalized secreted streptokinase activity reduction – plasminogen activation absorbance, OD405, dose response (AID 1914).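 Further: secreted streptokinase activity via plasminogen activation per viability signal from cell pellet.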 Type of data set: functional, Streptococcus pyogenes M1 GAS.

Data set [8] concerns Streptococcus sp. 'group A'. In words: Streptococcus pyogenes SK(-)GAS viability under kanamycin – luminescence, BacTiterGlo, confirmation, counter-screen for streptokinase expression inhibitor project, dose response (AID 1900). Type of data set: functional, organism-based.
Data set [9] is described as follows: Luminescence Cell-Based Dose Response HTS to Identify Inhibitors of 5'UTR Stem-Loop Driven Prion Protein mRNA Translation in H4 Neuroglioblastoma Cells. [Related pubchem assays: 1827 (Project Summary), 1813 (Primary HTS)]. Type of data set: functional.
Data set [10] in a line: alpha-synuclein stem-loop luciferase translation blockers – H4 neuroglioma cells, luminescence, confirmation (AID 1988). The format is functional, cell-based.

Chain of Cytochrome P450 2D6 (P10635 whole entry): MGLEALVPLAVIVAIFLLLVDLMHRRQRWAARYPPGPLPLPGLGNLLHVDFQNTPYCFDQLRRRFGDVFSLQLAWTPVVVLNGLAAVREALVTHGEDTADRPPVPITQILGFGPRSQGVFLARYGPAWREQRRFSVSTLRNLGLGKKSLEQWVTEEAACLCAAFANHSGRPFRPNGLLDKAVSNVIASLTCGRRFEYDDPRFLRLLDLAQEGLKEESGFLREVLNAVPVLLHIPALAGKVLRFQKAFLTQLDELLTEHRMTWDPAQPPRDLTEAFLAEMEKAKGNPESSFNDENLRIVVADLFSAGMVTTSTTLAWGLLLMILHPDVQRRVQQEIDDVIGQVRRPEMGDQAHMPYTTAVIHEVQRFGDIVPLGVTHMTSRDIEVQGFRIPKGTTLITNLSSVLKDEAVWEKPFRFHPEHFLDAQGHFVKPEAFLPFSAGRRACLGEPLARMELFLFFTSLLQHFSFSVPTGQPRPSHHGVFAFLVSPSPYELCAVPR
Chain of Large T antigen (P03070 whole entry): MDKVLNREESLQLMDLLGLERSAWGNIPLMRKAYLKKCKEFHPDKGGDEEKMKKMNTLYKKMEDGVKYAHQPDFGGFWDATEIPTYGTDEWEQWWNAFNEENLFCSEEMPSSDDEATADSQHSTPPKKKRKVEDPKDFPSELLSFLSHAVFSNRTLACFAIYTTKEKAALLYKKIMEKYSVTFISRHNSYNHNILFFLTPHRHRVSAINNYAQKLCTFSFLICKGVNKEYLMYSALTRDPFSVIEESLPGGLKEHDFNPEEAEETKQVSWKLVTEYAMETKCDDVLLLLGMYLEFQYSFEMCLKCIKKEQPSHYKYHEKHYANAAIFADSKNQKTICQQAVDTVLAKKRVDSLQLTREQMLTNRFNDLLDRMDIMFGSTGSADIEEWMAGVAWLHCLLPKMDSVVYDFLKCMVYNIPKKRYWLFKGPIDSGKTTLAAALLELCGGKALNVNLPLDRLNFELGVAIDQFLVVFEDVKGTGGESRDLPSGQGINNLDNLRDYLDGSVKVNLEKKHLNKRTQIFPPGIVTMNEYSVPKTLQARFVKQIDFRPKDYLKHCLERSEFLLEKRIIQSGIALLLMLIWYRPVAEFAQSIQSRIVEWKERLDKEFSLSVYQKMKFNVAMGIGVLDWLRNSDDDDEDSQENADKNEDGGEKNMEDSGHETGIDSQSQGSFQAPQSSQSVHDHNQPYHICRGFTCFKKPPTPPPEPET
Chain of Cytochrome P450 2C19 (P33261 whole entry): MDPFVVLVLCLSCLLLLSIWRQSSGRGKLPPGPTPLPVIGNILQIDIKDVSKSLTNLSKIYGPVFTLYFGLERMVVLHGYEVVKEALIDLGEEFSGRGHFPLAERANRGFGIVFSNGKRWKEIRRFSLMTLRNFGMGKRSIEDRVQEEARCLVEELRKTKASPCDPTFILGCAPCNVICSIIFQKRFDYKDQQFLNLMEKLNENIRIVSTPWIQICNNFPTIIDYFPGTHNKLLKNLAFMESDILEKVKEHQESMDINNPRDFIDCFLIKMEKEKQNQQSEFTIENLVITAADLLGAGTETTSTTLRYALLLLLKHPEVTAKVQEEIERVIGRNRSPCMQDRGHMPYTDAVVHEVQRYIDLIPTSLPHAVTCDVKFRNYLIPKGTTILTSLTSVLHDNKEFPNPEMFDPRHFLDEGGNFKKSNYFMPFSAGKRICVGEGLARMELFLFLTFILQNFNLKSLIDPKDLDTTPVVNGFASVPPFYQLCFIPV
Chain of Cytochrome P450 3A4 (P08684 whole entry): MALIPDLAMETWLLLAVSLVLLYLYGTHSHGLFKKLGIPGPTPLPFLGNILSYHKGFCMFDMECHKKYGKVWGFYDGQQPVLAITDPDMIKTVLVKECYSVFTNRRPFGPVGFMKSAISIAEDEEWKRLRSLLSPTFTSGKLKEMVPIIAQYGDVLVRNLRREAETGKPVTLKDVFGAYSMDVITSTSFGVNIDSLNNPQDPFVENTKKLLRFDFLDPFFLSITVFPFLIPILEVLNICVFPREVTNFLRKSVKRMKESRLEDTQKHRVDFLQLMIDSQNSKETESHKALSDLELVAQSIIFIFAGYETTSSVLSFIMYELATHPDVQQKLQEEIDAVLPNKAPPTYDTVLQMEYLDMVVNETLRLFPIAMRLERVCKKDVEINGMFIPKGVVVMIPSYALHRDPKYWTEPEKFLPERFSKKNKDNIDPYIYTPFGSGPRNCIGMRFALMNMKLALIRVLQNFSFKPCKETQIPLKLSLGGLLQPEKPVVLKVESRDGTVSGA

On to `CCCNC(=O)Cn1cnc2sc(C(=O)Nc3ccc4c(c3)OCO4)c(C)c2c1=O`, for which the AC50 at Cytochrome P450 2C19 (read-out: AC50) was 0.00562 µM (inconclusive); at Cytochrome P450 2D6, 5.01 µM (inconclusive); on Cytochrome P450 3A4, 1.41 µM (inconclusive).

Consider `CO[C@@H](C)[C@](O)(C(=O)OCC1=CCN2CC[C@@H](O)[C@H]12)C(C)C`, for which the values for the AC50 result on Cytochrome P450 2C19 and on Cytochrome P450 2D6 were “inconclusive” and 3.98 µM (inconclusive), respectively.

Consider `COc1ccc(-c2nc(-c3ccncc3)no2)cc1OC`, for which the figures for the EC50 in data set [1] and in [2] were > 160 µM (inactive) and 5.21 µM (active), respectively.

With `CN(C)/C=C(\C#N)C(=O)Nc1ccc(O)cc1F`, at Large T antigen, the IC50 was 17.6 µM (active).

As for `Cc1ccc(-c2nnc(Nc3ccccc3)c3ccccc23)cc1S(=O)(=O)NCC1CCCO1` (stereo not given), the figures for the EC50 in [1] and in [2] were 25 µM (active) and 5.07 µM (active), respectively.

For `COc1ccccc1CNc1nc(NCc2ccccc2OC)c2sccc2n1`, the concentration at half-maximal activity (AC50) is 22.1 µM (active) in [3], 6.33 µM (active) in data set [4] and 9.79 µM (active) in data set [5].

Take `Cn1c(CCN2CCCCC2)nc2cc([N+](=O)[O-])ccc21`: the concentration at half-maximal activity (AC50) result at Cytochrome P450 2C19 was “inconclusive”; on Cytochrome P450 2D6, 14.1 µM (inconclusive).

`CN1CN(C)c2cccc3cccc1c23`: the IC50 at Large T antigen is 73.9 µM (active).

On to `COc1ccc(COc2ccccc2C(=O)NCc2ccccc2)cc1F`, for which the AC50 in data set [3] is 52.4 µM (active); in data set [4], 4.76 µM (active); in [5], 10.1 µM (active).

Turning to `COc1ccc(C2N=C(Nc3ccc(C)cc3)Nc3nc(C)cc(=O)n32)cc1` (stereo not given), the EC50 in data set [1] was > 160 µM (inactive); in [2], > 38 µM (not active).

Turning to `C=C1C(=O)C23C(O)C1CCC2C12COC3(O)C(O)C1C(C)(C)CCC2O` (stereo not given), the AC50 was 3.3 µM (active) in data set [4] and 8.14 µM (active) in data set [5].

Consider `C/C(=N\O)c1cc(Cl)cc(Cl)c1O`, for which the EC50 in [1] was > 160 µM (inactive); in data set [2] it was 4.41 µM (active).

Turning to `O=C(Nc1ccc(-c2cn3c(n2)SCC3)cc1)c1ccc2ccccc2n1`, the values for the EC50 (in data set [6]; in the data set on H4; in data set [7]) were 24 µM (active), 16.8 µM (active) and 15.5 µM (active), respectively.

Consider `Cc1ccc(-n2nnnc2-c2cnc(-c3cccnc3)nc2C(F)(F)F)cc1`, for which the figures for the half-maximal activity concentration (AC50) in data set [3], in data set [4] and in data set [5] were 57.4 µM (active), 5.89 µM (active) and 23 µM (active), respectively.

With `COc1cccc(/C=N/NC(=O)c2[nH]nc3c2CCc2ccccc2-3)c1`, the EC50 is > 60 µM (not active) in [6], > 120 µM (not active) in the data set on H4 and > 120 µM (not active) in data set [7].

On to `CCc1ccc(OC(=O)Nc2ccccc2)cc1`, for which the figures for the EC50 (in data set [6]; in the data set with H4; in [7]) were > 120 µM (not active), 7.7 µM (active) and 6.4 µM (active), respectively.

Take `CCCCCn1c(=O)c(C(=O)NC(C)c2ccccc2)c(O)c2ccccc21` (stereo not given): the AC50 in the data set on INS1 is 5.84 µM (active); in data set [3], > 70 µM (inactive); in data set [4], 11.7 µM (active); in data set [5], 6.26 µM (active).

On to `Cc1ccc(-c2c[n+](-c3ccc(OC(F)F)cc3)c3n2CCCCC3)cc1`, for which the AC50 with INS1 is 1.52 µM (active). Moreover, the EC50 in [1] is > 150 µM (inconclusive); in data set [2] it was > 38 µM (not active).

Regarding `c1ccc(-c2cn(CC3CCCCC3)nn2)cc1`, the EC50 in data set [6] was 0.236 µM (active); in the data set on H4 it was > 120 µM (inconclusive); in data set [7], 0.146 µM (active).

Take `C/C(=N\NC(=O)c1cccc(Br)c1)c1ccc(Br)cc1`: the AC50 at Cytochrome P450 2C19 (read-out: AC50) was 0.224 µM (inconclusive); on Cytochrome P450 3A4 it was 28.2 µM (inconclusive).

With `Cn1c2ccccc2c2cc(C(=O)N3CCN(CCO)CC3)sc21`, the EC50 in data set [6] was 15.3 µM (active); in the data set on H4 it was 33.8 µM (active); in [7] it was > 120 µM (not active).

For `CC(=O)OCC1OC(n2cc(F)c(=O)[nH]c2=O)C(OC(C)=O)C1OC(C)=O` (stereo not given), the EC50 in [6] is 117 µM (active); with H4, > 120 µM (not active); in [7], > 120 µM (not active).

Take `C[C@H](NC(=O)c1[nH]cnc1C(=O)NCc1ccc(CNC(=O)OC(C)(C)C)cc1)c1ccccc1`: the AC50 is > 70 µM (inactive) in data set [3], 11.7 µM (active) in data set [4] and 14.9 µM (active) in data set [5].

In the case of `Oc1c(Br)cc(Br)cc1Oc1ccc(Br)cc1Br`, the EC50 in the data set with Streptococcus is 2.73 µM (active); on Streptokinase A it was 0.753 µM (active); in [1], > 150 µM (inactive); in data set [2] it was > 38 µM (not active); in data set [8], 1.33 µM (active).

In the case of `CCS(=O)(=O)C1=NN2C(=N)/C(=C\c3ccc(OC(=O)c4ccco4)c(Br)c3)C(=O)N=C2S1`, at Large T antigen, the IC50 was > 100 µM (active).

For `CC(C)C(OC(=O)c1ccccc1)c1nccc2ccccc12` (stereo not given), the EC50 is 17.8 µM (active) in data set [6], 39.5 µM (active) in the data set with H4 and 21.5 µM (active) in [7].

With `CCN(CC)c1nc(N)c2c(N)nc3c(c2c1C#N)CC(c1ccccc1)O3` (stereo not given), the EC50 is > 160 µM (inactive) in data set [1] and > 38 µM (not active) in data set [2].

As for `CC(C)OC(=O)Cn1nnc2c(cnn2-c2ccccc2)c1=O`, the EC50 in data set [6] was 13.1 µM (active); in the data set on H4 it was 20.7 µM (active); in data set [7] it was 13.4 µM (active).

Take `Cc1ccc(Nc2nc(=O)c3cccnc3s2)cc1`: the EC50 in data set [6] is 2.71 µM (active); in the data set on H4, > 120 µM (not active).

Regarding `O=C(Oc1c(Cl)cc(Cl)c2cccnc12)N1CCOCC1`, the values for the EC50 in data set [1] and in [2] were > 150 µM (inactive) and > 38 µM (not active), respectively.

Take `Oc1nc(COc2ccc(Cl)cc2Cl)nc2ccccc12`: the EC50 in data set [6] is 0.107 µM (active); in the data set on H4 it was 0.148 µM (active); in data set [7], 0.125 µM (active).

For `c1ccc(CNc2ncnc3c2ncn3C2CCCCO2)cc1` (stereo not given), the EC50 in data set [6] was 4.67 µM (active); in the data set on H4 it was > 120 µM (not active); in [7], 5.99 µM (active).

Turning to `Cc1ccc(NC(=O)Cc2nn(C)c(=O)c3ccccc23)cc1F`, the AC50 was 3.98 µM (active) in the data set with INS1, 3.46 µM (active) in [3], 0.73 µM (active) in [4] and 2.3 µM (active) in [5].

Regarding `Cc1ccc(C(=O)Cn2cccn2)cc1`, the figures for the EC50 in data set [1] and in data set [2] were > 160 µM (inconclusive) and > 38 µM (not active), respectively.

In the case of `CC(=O)NCCNc1nc(-c2cccc(NS(C)(=O)=O)c2)nc2ccccc12`, the AC50 at Cytochrome P450 2C19 (read-out: AC50) was 39.8 µM (inconclusive); on Cytochrome P450 2D6, 10 µM (inconclusive).

For the compound `O=C(c1cc(-c2ccc3c(c2)OCO3)on1)N1CCCCC1`, the EC50 in data set [9] was 10.3 µM (active); in [10], 7.22 µM (inconclusive).

With `O=c1[nH]c(=O)c2nnc(N/N=C\c3ccc(O)cc3)nc2[nH]1`, on Large T antigen, the IC50 was 16.8 µM (active).

Regarding `Cc1nn(-c2ccccn2)c2c1-c1nc(N)ncc1CC2`, the results for the half-maximal effective concentration (EC50) in [6] and in data set [7] were 1.98 µM (active) and 12.3 µM (active), respectively.
